Results as given in patent US20220372013A2, “PIPERIDINE-2,6-DIONE DERIVATIVES AND CROHN'S DISEASE TREATING” (Tianjin Hemay Pharmaceutical Sci-Tech Co., Ltd, priority 2016, published 2022).
Read-outs that look alike come from different tables or passages of the source. Marks after values point to notes of the source that are not given here.

What was measured:
mice = test: Biological Example 5: acute toxicity experiment of single oral administration in mice; format: in vivo; settings: single oral 1000 mg/Kg, Mean ± SD
Method: The mice were fasted one day before the experiment. On the day of the experiment, 6 mice (ICR mice, body weight of 19-21 g, three females and three males) were selected in each experiment group. First of all, one female and one male were selected to orally give 1000 mg/Kg, and observed for 5-10 minutes. If there were no obvious side effects, the remaining 4 animals were orally given the same dose, and observed for 10-15 minutes. If no animal died, the animals were placed in a box to balancedly feed for 7 days. The state was observed and the body weight was recorded daily.
Observation Indexes within 0-15 Minutes after Administration
Activity: restlessness, hyperactivity
Nervous system response: tremor, spasm, convulsion, ataxia, posture abnormality, etc.
Autonomic nerve: exophthalmos, salivation, tears, urination (hematuria), diarrhea, piloerection, breathing, etc.
State of Animal: lethargy, hyperactivity, excitement, hair loss, diarrhea, abnormal behavior, death, etc.

[1] = test system: DNBS-Induced Inflammatory Bowel Disease Models in Rats; test: Biological Example 4: DNBS-induced inflammatory bowel disease models in rats; format: in vivo, Wistar rats; settings: 30 mg/Kg i.g. qd × 7; for Adhesion Degree of Colon / Colon weight to length ratio / Ulcer area of colon / inhibition in vivo at 30 mg/kg: day 7; for Body weight: Mean ± SD; for inhibition in vivo at 30 mg/kg: Rattus norvegicus, po, 168 h
Method: 102 male Wistar rats were fasted for 72 hours. A 5% glucose injection was administered subcutaneously twice during fasting. 88 rats with normal conditions and moderate body weight were selected from the fasting rats. The animals were randomly divided into 11 groups according to the body weight (see Table 11. Grouped Table).
The animals were anesthetized with ether after 72 hours fasting. A specially made gavage device was slowly inserted into the enteric cavity at 8 cm from the anus. The model control group and each test group were administered with 0.5 mL of 50 mg/mL DNBS in 30% ethanol solution. The normal control group was administered with 0.5 mL of 30% ethanol solution. The animals were inverted in anesthesia for 15 minutes. The day when the model was prepared was day 0 of the experiment. After 4 hours of DNBS induction, the corresponding drug or the corresponding volume of 1% CMC-Na was administered once per day. On day 7 of the experiment, the animals were euthanized to score the colon adhesion degree, measure the length of colon and ulcer area, weigh colon and calculate the colon weight to length ratio.
One-way ANOVA analysis of the length of colon and colon weight per length of rats was performed by SPSS22. Statistical analyses between groups were performed. The adhesion degree was scored. Mann-Whitney U non-parametric test was performed on ulcer area. Statistical analyses between groups were performed.
Calculation Formula of Inhibitory rate of weight increase per length: (Colon weight to length ratio in model group−Colon weight to length ratio in administration group)/(Colon weight to length ratio in model group−Colon weight to length ratio in blank group)

[2] = read-out: Inhibitory rate of colon adhesion
[3] = read-out: Inhibitory rate of ulcer area of colon
[4] = read-out: Inhibitory rate of weight increase per length

Structure (SMILES)	Daily Body Weight (mice; Female mice, Day 1)	Daily Body Weight (mice; Female mice, Day 2)	Daily Body Weight (mice; Female mice, Day 3)	Daily Body Weight (mice; Female mice, Day 4)	Daily Body Weight (mice; Female mice, Day 5)	Daily Body Weight (mice; Female mice, Day 6)	Daily Body Weight (mice; Female mice, Day 7)	Daily Body Weight (mice; Male mice, Day 1)	Daily Body Weight (mice; Male mice, Day 2)	Daily Body Weight (mice; Male mice, Day 3)	Daily Body Weight (mice; Male mice, Day 4)	Daily Body Weight (mice; Male mice, Day 5)	Daily Body Weight (mice; Male mice, Day 6)	Daily Body Weight (mice; Male mice, Day 7)	Adhesion Degree of Colon [1]	Colon weight to length ratio [1]	Ulcer area of colon [1]	Body weight ([1]; Day 1)	Body weight ([1]; Day 2)	Body weight ([1]; Day 3)	other results
CNc1cccc2c1C(=O)N(C1CCC(=O)N(CCOC)C1=O)C2=O (stereo not drawn) [Example 2, 4-methylamino-2-(1-(2-methoxyethyl)-2,6-dioxopiperidin-3-yl)isoindolin-1,3-dione]	19.2 ± 0.5 g	22.7 ± 0.6 g	23.2 ± 0.5 g	23.2 ± 0.5 g	24.4 ± 0.2 g	24.6 ± 1.1 g	24.5 ± 1.9 g	18.6 ± 0.5 g	24.1 ± 0.4 g	24.7 ± 0.2 g	24.7 ± 0.2 g	26.2 ± 0.6 g	28.8 ± 0.5 g	29.2 ± 0.8 g	0.8 ± 0.9 point	120 ± 25 mg/cm	1.0 ± 1.6 cm^2	122.1 ± 4.6 g	123.0 ± 8.4 g	127.1 ± 11.3 g	Body weight ([1]; Day 4): 132.0 ± 12.4 g; Body weight ([1]; Day 5): 143.9 ± 11.9 g; Body weight ([1]; Day 6): 141.5 ± 11.5 g; Body weight ([1]; Day 7): 162.8 ± 15.8 g; inhibition in vivo at 30 mg/kg [1, 2]: 66.9%; inhibition in vivo at 30 mg/kg [1, 3]: 83.3%; inhibition in vivo at 30 mg/kg [1, 4]: 57.6%
COCCN1C(=O)CCC(N2C(=O)c3c(N)ccc(O)c3C2=O)C1=O (stereo not drawn) [Example 10, 4-amino-7-hydroxy-2-(1-(2-methoxyethyl)-2,6-dioxopiperidin-3-yl)isoindolin-1,3-dione]	19.2 ± 0.5 g	21.9 ± 0.4 g	22.4 ± 0.2 g	22.4 ± 0.2 g	22.9 ± 0.6 g	24.1 ± 1.5 g	24.2 ± 1.8 g	19.4 ± 0.3 g	24.4 ± 0.6 g	25.5 ± 0.9 g	25.5 ± 0.9 g	26.8 ± 0.9 g	29.2 ± 0.7 g	30.3 ± 0.7 g	0.5 ± 0.5 point	93 ± 12 mg/cm	0.2 ± 0.5# cm^2	122.4 ± 6.7 g	122.1 ± 8.0 g	126.6 ± 9.8 g	Body weight ([1]; Day 4): 136.9 ± 12.5 g; Body weight ([1]; Day 5): 143.7 ± 18.2 g; Body weight ([1]; Day 6): 144.9 ± 19.7 g; Body weight ([1]; Day 7): 160.8 ± 25.7 g; inhibition in vivo at 30 mg/kg [1, 2]: 81.1%; inhibition in vivo at 30 mg/kg [1, 3]: 91.7%; inhibition in vivo at 30 mg/kg [1, 4]: 81.2%
